Measured values published in PubChem BioAssay AID248 (DTP/NCI, 2004).
“And” between values parts separate entries of the source, which are not always exact repeats. Equal values may be shown once. Toxic doses and inconclusive results are not listed. Cut-off read from the data, not from the text of the source: active = T/C of 150% or more; inactive = T/C below 125%.

Tested on: L1210 leukemia ip in BDF1 mice, survival T/C
Assay: NCI In Vivo Anticancer Drug Screen. Data for tumor model L1210 Leukemia (intraperitoneal) in B6D2F1 (BDF1) mice
Details: endpoint: mean survival time, higher = longer survival
Outline: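 Transplanted-tumor mice were given test agent; controls received vehicle only. Survival readings from the two groups were divided (treated over control).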

[1] = dose: 100.0 mg/kg/injection, schedule: Q04DX003 (ip), vehicle: Klucel (hydroxypropylcellulose) (HPC)
[2] = dose: 200.0 mg/kg/injection, schedule: Q04DX003 (ip), vehicle: Klucel (hydroxypropylcellulose) (HPC)
[3] = dose: 400.0 mg/kg/injection, schedule: Q04DX003 (ip), vehicle: Klucel (hydroxypropylcellulose) (HPC)
[4] = dose: 100.0 mg/kg/injection, schedule: Q04DX002 (ip), vehicle: Klucel (hydroxypropylcellulose) (HPC)
[5] = dose: 200.0 mg/kg/injection, schedule: Q04DX002 (ip), vehicle: Klucel (hydroxypropylcellulose) (HPC)
[6] = dose: 400.0 mg/kg/injection, schedule: Q04DX002 (ip), vehicle: Klucel (hydroxypropylcellulose) (HPC)
[7] = dose: 100.0 mg/kg/injection, schedule: Q04DX002 (ip), vehicle: saline with Tween-80
[8] = dose: 200.0 mg/kg/injection, schedule: Q04DX002 (ip), vehicle: saline with Tween-80
[9] = dose: 400.0 mg/kg/injection, schedule: Q04DX002 (ip), vehicle: saline with Tween-80
[10] = dose: 50.0 mg/kg/injection, schedule: Q01DX001 (ip), vehicle: carboxymethylcellulose (CMC)
[11] = dose: 100.0 mg/kg/injection, schedule: Q01DX001 (ip), vehicle: carboxymethylcellulose (CMC)
[12] = dose: 200.0 mg/kg/injection, schedule: Q01DX001 (ip), vehicle: carboxymethylcellulose (CMC)
[13] = dose: 400.0 mg/kg/injection, schedule: Q01DX001 (ip), vehicle: carboxymethylcellulose (CMC)

Measured: T/C

Nc1nc2c(c(=O)[nH]1)[N+]1=CN(c3ccc(C(=O)NC(CCC(=O)O)C(=O)O)cc3)CCC1CN2 (stereo not given)
inactive: dose: 1.0 mg/kg/injection, schedule: Q01DX009 (ip), vehicle: saline 94 % of control | dose: 2.0 mg/kg/injection, schedule: Q01DX009 (ip), vehicle: saline 100 % of control | dose: 4.0 mg/kg/injection, schedule: Q01DX009 (ip), vehicle: saline 105 % of control | dose: 4.0 mg/kg/injection, schedule: Q04DX003 (ip), vehicle: saline 97 % of control | dose: 8.0 mg/kg/injection, schedule: Q01DX009 (ip), vehicle: saline 94 % of control | dose: 8.0 mg/kg/injection, schedule: Q04DX003 (ip), vehicle: saline 100 % of control | dose: 16.0 mg/kg/injection, schedule: Q01DX009 (ip), vehicle: saline 97 % of control | dose: 16.0 mg/kg/injection, schedule: Q04DX003 (ip), vehicle: saline 99 % of control | dose: 32.0 mg/kg/injection, schedule: Q04DX003 (ip), vehicle: saline 90 % of control | dose: 64.0 mg/kg/injection, schedule: Q04DX003 (ip), vehicle: saline 97 % of control

Cc1ccc(C(=O)C(C)(C)C)c(C)c1
inactive: dose: 100.0 mg/kg/injection, schedule: Q01DX009 (ip), vehicle: saline 97 % of control | dose: 200.0 mg/kg/injection, schedule: Q01DX009 (ip), vehicle: saline 97 % of control | dose: 400.0 mg/kg/injection, schedule: Q01DX009 (ip), vehicle: saline 93 % of control

NC(=O)N/N=C(/CCC(=O)O)C(=O)O
inactive: dose: 100.0 mg/kg/injection, schedule: Q01DX001 (ip), vehicle: acetone 98 % of control | dose: 100.0 mg/kg/injection, schedule: Q01DX009 (ip), vehicle: acetone 92 % of control | dose: 100.0 mg/kg/injection, schedule: Q04DX003 (ip), vehicle: saline 89 % of control | dose: 200.0 mg/kg/injection, schedule: Q01DX001 (ip), vehicle: acetone 103 % of control | dose: 200.0 mg/kg/injection, schedule: Q01DX009 (ip), vehicle: acetone 100 % of control | dose: 200.0 mg/kg/injection, schedule: Q04DX003 (ip), vehicle: saline 93 % of control and 87 % of control | dose: 400.0 mg/kg/injection, schedule: Q01DX001 (ip), vehicle: acetone 95 % of control | dose: 400.0 mg/kg/injection, schedule: Q01DX009 (ip), vehicle: acetone 94 % of control | dose: 400.0 mg/kg/injection, schedule: Q04DX003 (ip), vehicle: saline 91 % of control

CCCCCCCCCCCCCCCCOc1ccc(C(=O)OC)cc1N
inactive: [1] 102 % of control | [2] 104 % of control | [3] 96 % of control

O=C(O)CSc1n[nH]c(=O)[nH]c1=O
inactive: dose: 100.0 mg/kg/injection, schedule: Q01DX001 (ip), vehicle: saline 117 % of control | dose: 200.0 mg/kg/injection, schedule: Q01DX001 (ip), vehicle: saline 97 % of control | dose: 400.0 mg/kg/injection, schedule: Q01DX001 (ip), vehicle: saline 113 % of control

CCOc1ccc(CCOC(C)=O)cc1
inactive: [4] 97 % of control | [5] 101 % of control | [6] 101 % of control

NC(C(=O)O)C(N)(CC(=O)O)C(=O)O (stereo not given)
inactive: [7] 94 % of control | [8] 94 % of control | [9] 105 % of control

COc1ccc2c(c1)C1(C)CCN(CCc3ccccc3)C(C2)C1C (stereo not given)
inactive: dose: 75.0 mg/kg/injection, schedule: Q01DX001 (ip), vehicle: carboxymethylcellulose (CMC) 93 % of control | dose: 150.0 mg/kg/injection, schedule: Q01DX001 (ip), vehicle: carboxymethylcellulose (CMC) 94 % of control

CN(C)CCCOS(C)(=O)=O
inactive: [7] 105 % of control | [8] 99 % of control

C=CCO[Si](C=C)(OCC=C)OCC=C
inactive: dose: 75.0 mg/kg/injection, schedule: Q01DX001 (ip), vehicle: other 116 % of control | dose: 150.0 mg/kg/injection, schedule: Q01DX001 (ip), vehicle: other 95 % of control | dose: 300.0 mg/kg/injection, schedule: Q01DX001 (ip), vehicle: other 94 % of control

CN(C)c1ccc(/C=N/NC(=O)C2CCCO2)c(Cl)c1 (stereo not given)
inactive: dose: 100.0 mg/kg/injection, schedule: Q01DX009 (ip), vehicle: Klucel (hydroxypropylcellulose) (HPC) 102 % of control | dose: 200.0 mg/kg/injection, schedule: Q01DX009 (ip), vehicle: Klucel (hydroxypropylcellulose) (HPC) 98 % of control

OCCCOc1cccc(Cl)c1
inactive: dose: 75.0 mg/kg/injection, schedule: Q04DX002 (ip), vehicle: Klucel (hydroxypropylcellulose) (HPC) 105 % of control | dose: 150.0 mg/kg/injection, schedule: Q04DX002 (ip), vehicle: Klucel (hydroxypropylcellulose) (HPC) 108 % of control | dose: 300.0 mg/kg/injection, schedule: Q04DX002 (ip), vehicle: Klucel (hydroxypropylcellulose) (HPC) 105 % of control

Nc1cncc2ncc(-c3ccc(Cl)cc3)nc12
inactive: dose: 50.0 mg/kg/injection, schedule: Q01DX001 (ip), vehicle: other 105 % of control | dose: 100.0 mg/kg/injection, schedule: Q01DX001 (ip), vehicle: other 100 % of control | dose: 200.0 mg/kg/injection, schedule: Q01DX001 (ip), vehicle: other 94 % of control | dose: 400.0 mg/kg/injection, schedule: Q01DX001 (ip), vehicle: other 96 % of control

COc1cccc(CCO)c1OC
inactive: [10] 88 % of control | [11] 91 % of control | [12] 88 % of control | [13] 98 % of control

CC(=O)c1ccccc1OCC(O)CN1CCN(c2ccccc2)CC1 (stereo not given)
inactive: dose: 25.0 mg/kg/injection, schedule: Q01DX009 (ip), vehicle: saline with Tween-80 94 % of control | dose: 25.0 mg/kg/injection, schedule: Q04DX003 (ip), vehicle: saline with Tween-80 100 % of control | dose: 50.0 mg/kg/injection, schedule: Q01DX009 (ip), vehicle: saline with Tween-80 101 % of control | dose: 50.0 mg/kg/injection, schedule: Q04DX003 (ip), vehicle: saline with Tween-80 103 % of control | dose: 100.0 mg/kg/injection, schedule: Q01DX009 (ip), vehicle: saline with Tween-80 101 % of control | dose: 100.0 mg/kg/injection, schedule: Q04DX003 (ip), vehicle: saline with Tween-80 97 % of control

CN(C)CCOC(=O)c1ccc(CBr)cc1
inactive: dose: 10.0 mg/kg/injection, schedule: Q01DX009 (ip), vehicle: saline 97 % of control | dose: 20.0 mg/kg/injection, schedule: Q01DX009 (ip), vehicle: saline 95 % of control | dose: 40.0 mg/kg/injection, schedule: Q01DX009 (ip), vehicle: saline 93 % of control | dose: 87.5 mg/kg/injection, schedule: Q01DX009 (ip), vehicle: saline 101 % of control

O=C(CC(=O)c1ccccc1)Cc1ccccc1.O=C(CC(=O)c1ccccc1)Cc1ccccc1.[Cu]
inactive: [1] 94 % of control | [2] 97 % of control | [3] 104 % of control

COc1ccc(-c2ccccc2)cc1S
inactive: [10] 95 % of control | [11] 98 % of control | [12] 93 % of control | [13] 98 % of control

CCOC(=O)CCN(Cc1ccccc1)C(=S)Nc1ccccc1
inactive: dose: 25.0 mg/kg/injection, schedule: Q01DX Z (ip), vehicle: methylcellulose (MC) 98 % of control

CCC(OO)(C1=NC(C)(C)CO1)c1ccncc1Br (stereo not given)
inactive: dose: 100.0 mg/kg/injection, schedule: Q01DX001 (ip), vehicle: Klucel (hydroxypropylcellulose) (HPC) 98 % of control | [1] 97 % of control | dose: 200.0 mg/kg/injection, schedule: Q01DX001 (ip), vehicle: Klucel (hydroxypropylcellulose) (HPC) 101 % of control | [2] 101 % of control | [3] 102 % of control

C[N+](C)(C)N1C(=O)C2C3c4ccccc4C(C2C1=O)[n+]1ccccc13 (stereo not given)
inactive: dose: 9.38 mg/kg/injection, schedule: Q01DX001 (ip), vehicle: other 86 % of control | dose: 18.75 mg/kg/injection, schedule: Q01DX001 (ip), vehicle: other 105 % of control

CC(C)(C)c1cc(C#N)cc(Br)c1OP(=O)(Oc1c(Br)cc(C#N)cc1C(C)(C)C)c1ccccc1
inactive: [7] 95 % of control | [8] 92 % of control | [9] 97 % of control

Nc1ccc(C(=O)O)cc1[N+](=O)[O-]
inactive: [4] 95 % of control | [5] 100 % of control | [6] 95 % of control
